Tests used:
[1] = target: T1, PIP4K 2A (Homo sapiens, UniProt P48426); assay: ADP-glo kinase assay PIP4K 2A; assay type: biochemical; parameters: 4 nM PIP4K2A (full length protein, SignalChem); purchased SignalChem; conditions: compounds listed under IC50 bin headings
T1 sequence (P48426 1-406): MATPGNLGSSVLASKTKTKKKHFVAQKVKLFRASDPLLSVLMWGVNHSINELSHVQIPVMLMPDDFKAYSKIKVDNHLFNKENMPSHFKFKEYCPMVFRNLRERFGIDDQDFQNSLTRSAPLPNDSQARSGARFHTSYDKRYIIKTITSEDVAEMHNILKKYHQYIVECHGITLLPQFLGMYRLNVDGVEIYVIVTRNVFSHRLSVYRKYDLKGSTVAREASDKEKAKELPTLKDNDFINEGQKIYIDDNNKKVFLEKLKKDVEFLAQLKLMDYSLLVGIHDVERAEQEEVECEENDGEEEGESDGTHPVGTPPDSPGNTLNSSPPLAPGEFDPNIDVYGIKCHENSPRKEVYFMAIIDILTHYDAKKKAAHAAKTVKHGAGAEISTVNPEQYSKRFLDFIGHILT
In short: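 Full-length PIP4K2A was pre-incubated 15 min at RT with compound in 20 mM MOPS pH 7.2, 25 mM MgCl2, 0.005% Tween 20. The enzyme mix held 4 nM kinase and 100 μM PI(5)P diC8, and ATP was added from a 60 μM solution. After 1 h at RT, ADP-Glo luminescence gave % inhibition versus DMSO, fitted to IC50 over 10 threefold dilutions.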

[2] = target: T2, PIP4K2B (Homo sapiens, UniProt P78356); assay: Trans-FI P kinase assay PIP4K2B (PIP4KtypeIIB inhibition assay); assay type: biochemical; conditions: compounds listed under IC50 bin headings; 100 uM GTP; read-out: Trans-FI P kinase assays: PIP4K2B IC50
T2 construct: made in house; host or cells: E. coli
T2 sequence (P78356 1-416): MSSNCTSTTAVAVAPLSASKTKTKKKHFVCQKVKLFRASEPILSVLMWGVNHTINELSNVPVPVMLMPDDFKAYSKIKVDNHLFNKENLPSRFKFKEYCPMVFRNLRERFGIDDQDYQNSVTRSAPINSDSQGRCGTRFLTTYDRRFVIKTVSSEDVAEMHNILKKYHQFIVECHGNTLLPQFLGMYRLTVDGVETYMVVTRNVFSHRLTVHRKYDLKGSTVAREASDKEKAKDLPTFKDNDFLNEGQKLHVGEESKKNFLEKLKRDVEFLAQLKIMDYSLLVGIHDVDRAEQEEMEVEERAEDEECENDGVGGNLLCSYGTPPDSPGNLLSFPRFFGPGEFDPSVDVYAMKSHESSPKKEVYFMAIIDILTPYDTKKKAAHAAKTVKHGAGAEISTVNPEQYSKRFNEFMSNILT
In short: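 GST-tagged human PIP4K2B (5 nM, E. coli-expressed) preincubated 1 h at 27 C with compound (top 4.8 uM, 5% DMSO), then reacted 2 h with 100 uM GTP and 80 uM PI5P/DOPE vesicles in HEPES pH 7.3, MgCl2, Triton X-100. GDP detected by Transcreener FI fluorescence via calibration curve; IC50 from % activity vs log[inhibitor].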

Compound: CC1Oc2cc(N3CCCC3=O)c(F)cc2-c2cnc(Nc3cnc4c(c3)N3C(=O)CC[C@@H]3CO4)cc21 (stereo partly drawn) [Example 181, (6aR)-2-((9-fluoro-5-methyl-8-(2-oxopyrrolidin-1-yl)-5H-chromeno[4,3-c]pyridin-3-yl)amino)-6,6a,7,8-tetrahydro-9H-pyrido[2,3-b]pyrrolo[1,2-d][1,4]oxazin-9-one]
- IC50 [1]: 1 to 10 nM
- IC50 [2]: 1 to 10 nM

Compound: O=C1CCCN1c1ccc2c(c1)OCc1cc(Nc3cnc4c(c3)N3C(=O)CC[C@@H]3CO4)ncc1-2 [Example 182, (R)-2-((8-(2-oxopyrrolidin-1-yl)-5H-chromeno[4,3-c]pyridin-3-yl)amino)-6,6a,7,8-tetrahydro-9H-pyrido[2,3-b]pyrrolo[1,2-d][1,4]oxazin-9-one]
- IC50 [1]: 1 to 10 nM
- IC50 [2]: 1 to 10 nM

Compound: CC1(C)Oc2cc(N3CCCC3=O)ccc2-c2cnc(Nc3cnc4c(c3)N3C(=O)CC[C@@H]3CO4)cc21 [Example 183, (R)-2-((5,5-dimethyl-8-(2-oxopyrrolidin-1-yl)-5H-chromeno[4,3-c]pyridin-3-yl)amino)-6,6a,7,8-tetrahydro-9H-pyrido[2,3-b]pyrrolo[1,2-d][1,4]oxazin-9-one]
- IC50 [1]: 1 to 10 nM
- IC50 [2]: 1 to 10 nM

Compound: CC1(C)Oc2cc(N3CCCC3=O)c(F)cc2-c2cnc(Nc3cnc4c(c3)N3C(=O)CC[C@@H]3CO4)cc21 [Example 184, (R)-2-((9-fluoro-5,5-dimethyl-8-(2-oxopyrrolidin-1-yl)-5H-chromeno[4,3-c]pyridin-3-yl)amino)-6,6a,7,8-tetrahydro-9H-pyrido[2,3-b]pyrrolo[1,2-d][1,4]oxazin-9-one]
- IC50 [1]: ≤ 1 nM
- IC50 [2]: 1 to 10 nM

Compound: CC1Oc2cc(N3CCCC3=O)ccc2-c2cnc(Nc3cncc(N4CCN(C)S4(=O)=O)c3)cc21 (stereo not drawn) [Example 185, 1-(5-methyl-3-((5-(5-methyl-1,1-dioxido-1,2,5-thiadiazolidin-2-yl)pyridin-3-yl)amino)-5H-chromeno[4,3-c]pyridin-8-yl)pyrrolidin-2-one]
- IC50 [1]: 1 to 10 nM
- IC50 [2]: 100 to 1000 nM

Compound: CN1CCN(c2cncc(Nc3cc4c(cn3)-c3ccc(N5CCCC5=O)cc3OC4(C)C)c2)S1(=O)=O [Example 186, 1-(5,5-dimethyl-3-((5-(5-methyl-1,1-dioxido-1,2,5-thiadiazolidin-2-yl)pyridin-3-yl)amino)-5H-chromeno[4,3-c]pyridin-8-yl)pyrrolidin-2-one]
- IC50 [1]: 10 to 100 nM
- IC50 [2]: 10 to 100 nM

Compound: CC1(C)Oc2cc(N3CCCC3=O)ccc2-c2cnc(Nc3cnc4c(c3)N3C(=O)CC[C@H]3CO4)nc21 [Example 189, (S)-2-((5,5-dimethyl-8-(2-oxopyrrolidin-1-yl)-5H-chromeno[3,4-d]pyrimidin-3-yl)amino)-6,6a,7,8-tetrahydro-9H-pyrido[2,3-b]pyrrolo[1,2-d][1,4]oxazin-9-one]
- IC50 [1]: ≤ 1 nM
- IC50 [2]: 1 to 10 nM

Compound: CC1(C)Oc2cc(N3CCCC3=O)c(F)cc2-c2cnc(Nc3cnc4c(c3)N3C(=O)CC[C@H]3CO4)nc21 [Example 190, (S)-2-((9-fluoro-5,5-dimethyl-8-(2-oxopyrrolidin-1-yl)-5H-chromeno[3,4-d]pyrimidin-3-yl)amino)-6,6a,7,8-tetrahydro-9H-pyrido[2,3-b]pyrrolo[1,2-d][1,4]oxazin-9-one]
- IC50 [1]: ≤ 1 nM
- IC50 [2]: 1 to 10 nM

Compound: COc1ncc(Nc2cc3c(cn2)-c2ccc(N4CCCC4=O)cc2OC3(C)C)cc1NC(C)=O [Example 191, N-(5-((5,5-dimethyl-8-(2-oxopyrrolidin-1-yl)-5H-chromeno[4,3-c]pyridin-3-yl)amino)-2-methoxypyridin-3-yl)acetamide]
- IC50 [1]: 100 to 1000 nM
- IC50 [2]: 100 to 1000 nM

Compound: CC1Oc2cc(N3CCCC3=O)ccc2-c2cnc(Nc3cncc(NC(=O)c4cccc5[nH]cnc45)c3)cc21 (stereo not drawn) [Example 196, N-(5-((5-methyl-8-(2-oxopyrrolidin-1-yl)-5H-chromeno[4,3-c]pyridin-3-yl)amino)pyridin-3-yl)-1H-benzo[d]imidazole-7-carboxamide]
- IC50 [1]: 1 to 10 nM
- IC50 [2]: 10 to 100 nM

Compound: O=C1CCCN1c1ccc(-c2ccc(Nc3cnc4c(c3)N3C(=O)C5(CC5)C[C@H]3CO4)nc2)cc1F [Example 197, (S)-2′-((5-(3-fluoro-4-(2-oxopyrrolidin-1-yl)phenyl)pyridin-2-yl)amino)-6a′,7′-dihydro-6′H,9′H-spiro[cyclopropane-1,8′-pyrido[2,3-b]pyrrolo[1,2-d][1,4]oxazin]-9′-one]
- IC50 [1]: 1 to 10 nM
- IC50 [2]: 1 to 10 nM

Compound: CN(C)C/C=C/C(=O)Nc1ccc(C(=O)Nc2cncc(Nc3cc4c(cn3)-c3ccc(N5CCCC5=O)cc3OC4(C)C)c2)cc1 [Example 198, (E)-N-(5-((5,5-dimethyl-8-(2-oxopyrrolidin-1-yl)-5H-chromeno[4,3-c]pyridin-3-yl)amino)pyridin-3-yl)-4-(4-(dimethylamino)but-2-enamido)benzamide]
- IC50 [1]: 1 to 10 nM
- IC50 [2]: 1 to 10 nM

Compound: CN(C)C/C=C/C(=O)Nc1cccc(CCC(=O)Nc2cncc(Nc3cc4c(cn3)-c3ccc(N5CCCC5=O)cc3OC4(C)C)c2)c1 [Example 199, (E)-N-(3-(3-((5-((5,5-dimethyl-8-(2-oxopyrrolidin-1-yl)-5H-chromeno[4,3-c]pyridin-3-yl)amino)pyridin-3-yl)amino)-3-oxopropyl)phenyl)-4-(dimethylamino)but-2-enamide]
- IC50 [1]: 1 to 10 nM
- IC50 [2]: 10 to 100 nM

Compound: CN(C)C/C=C/C(=O)Nc1ccc(C(=O)Nc2cncc(Nc3cc4c(cn3)-c3ccc(N5CCCC5=O)cc3OC4)c2)cc1 [Example 200, (E)-4-(4-(dimethylamino)but-2-enamido)-N-(5-((8-(2-oxopyrrolidin-1-yl)-5H-chromeno[4,3-c]pyridin-3-yl)amino)pyridin-3-yl)benzamide]
- IC50 [1]: 1 to 10 nM
- IC50 [2]: 1 to 10 nM

Compound: CC1Oc2cc(N3CCCC3=O)ccc2-c2cncc(Nc3ccncc3)c21 (stereo not drawn) [Example 203, 1-(5-methyl-4-(pyridin-4-ylamino)-5H-chromeno[4,3-c]pyridin-8-yl)pyrrolidin-2-one]
- IC50 [1]: > 1000 nM
- IC50 [2]: > 1000 nM

Compound: CC1Oc2cc(N3CCCC3=O)c(F)cc2-c2cnc(Nc3cnc4c(c3)N3C(=O)[C@](C)(O)C[C@H]3CO4)cc21 (stereo partly drawn) [Example 204, (6aS,8R)-2-((9-fluoro-5-methyl-8-(2-oxopyrrolidin-1-yl)-5H-chromeno[4,3-c]pyridin-3-yl)amino)-8-hydroxy-8-methyl-6,6a,7,8-tetrahydro-9H-pyrido[2,3-b]pyrrolo[1,2-d][1,4]oxazin-9-one]
- IC50 [1]: 1 to 10 nM
- IC50 [2]: 10 to 100 nM

Compound: CC1Oc2cc(N3CCCC3=O)ccc2-c2cnc(Nc3cnc4c(c3)N3C(=O)[C@](C)(O)C[C@H]3CO4)cc21 (stereo partly drawn) [Example 205, (6aS,8R)-8-hydroxy-8-methyl-2-((5-methyl-8-(2-oxopyrrolidin-1-yl)-5H-chromeno[4,3-c]pyridin-3-yl)amino)-6,6a,7,8-tetrahydro-9H-pyrido[2,3-b]pyrrolo[1,2-d][1,4]oxazin-9-one]
- IC50 [1]: 10 to 100 nM
- IC50 [2]: 10 to 100 nM

Compound: CC1Oc2cc(N3CCCC3=O)ccc2-c2cnc(Nc3cnc4c(c3)N3C(=O)C(O)C[C@H]3CO4)cc21 (stereo partly drawn) [Example 206, (6aS)-8-hydroxy-2-((5-methyl-8-(2-oxopyrrolidin-1-yl)-5H-chromeno[4,3-c]pyridin-3-yl)amino)-6,6a,7,8-tetrahydro-9H-pyrido[2,3-b]pyrrolo[1,2-d][1,4]oxazin-9-one]
- IC50 [1]: ≤ 1 nM
- IC50 [2]: 1 to 10 nM

Source: patent US11584763B2, “Chromenopyridine derivatives as phosphatidylinositol phosphate kinase inhibitors” (HIBERCELL, INC., priority 2017, dated 2023)
